# Target: IRAK4 (Homo sapiens (Human), UniProt Q9NWZ3)
# Experiment: In vitro IRAK4 phosphorylation activity assay
# Format: biochemical
# Details: [γ-33P]-ATP, myelin basic protein substrate, 40 minutes at room temperature; categories
# Experimental: In vitro IRAK4 analysis was performed using N-(1H-imidazol-2-yl)benzamide compounds according to the present invention. All compounds were prepared by dissolving in DMSO. N-(1H-imidazol-2-yl)benzamide compound according to the present invention and other elements for the reaction were added to an assay well. In the standard Kinase Profiler service the preincubation step between the N-(1H-imidazol-2-yl)benzamide compound and kinase was not performed before the reaction.
# To the positive control well, all reactants except for the N-(1H-imidazol-2-yl)benzamide compound according to the present invention were added, and DMSO was added to remove the solvent effect. A known control inhibitor having the following structure was added to the blank wells to inhibit kinase activity and establish a base-line.
# IRAK4 was incubated with 8 mM MOPS pH 7.0, 0.2 mM EDTA, 0.33 mg/mL myelin basic protein, 10 mM magnesium acetate and [γ-33P]-ATP (specific activity approx. 500 cpm/pmol, concentration as required). The reaction was initiated by the addition of the MgATP mix. After incubation for 40 minutes at room temperature, the reaction was stopped by the addition of 3% phosphoric acid solution. 10 μL of the reaction was then spotted onto a P30 filtermat and washed three times for 5 minutes in 75 mM phosphoric acid and once in methanol prior to drying and scintillation counting.
# The results are shown in Table 26 below, where the phosphorylation activity of IC50 values for IRAK4 is shown in categories (A: <50 nM, B: 50-100 nM, C: >100 nM).
# Chain of IRAK4 (Q9NWZ3 whole entry): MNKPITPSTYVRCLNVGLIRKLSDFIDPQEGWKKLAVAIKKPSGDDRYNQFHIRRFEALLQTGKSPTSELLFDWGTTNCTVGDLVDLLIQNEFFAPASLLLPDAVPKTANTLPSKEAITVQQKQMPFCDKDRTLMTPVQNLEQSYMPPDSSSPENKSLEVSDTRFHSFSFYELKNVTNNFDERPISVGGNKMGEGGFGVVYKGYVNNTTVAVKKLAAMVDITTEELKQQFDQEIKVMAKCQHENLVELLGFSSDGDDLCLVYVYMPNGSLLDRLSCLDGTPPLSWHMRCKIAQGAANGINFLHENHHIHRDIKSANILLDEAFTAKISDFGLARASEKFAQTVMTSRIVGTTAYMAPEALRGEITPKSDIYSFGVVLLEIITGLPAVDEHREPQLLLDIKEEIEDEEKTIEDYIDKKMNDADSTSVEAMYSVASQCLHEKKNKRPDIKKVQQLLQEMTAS
row,IC50 [nM],Structure (SMILES)
1,< 50,"O=C(CCCc1cn(-c2ccccc2)c(NC(=O)c2cccc(-c3ccc4[nH]ncc4c3)c2)n1)NC1CC1 [Example 245, N-(4-(4-(cyclopropylamino)-4-oxobutyl)-1-phenyl-1H-imidazol-2-yl)-3-(1H-indazol-5-yl)benzamide]"
2,< 50,"CC(=O)N1CCN(C(=O)CCCc2cn(-c3ccccc3)c(NC(=O)c3cccc(-c4cnn(C)c4)c3)n2)CC1 [Example 205, N-(4-(4-(4-acetylpiperazin-1-yl)-4-oxobutyl)-1-phenyl-1H-imidazol-2-yl)-3-(1-methyl-1H-pyrazol-4-yl)benzamide]"
3,< 50,"CC1CCCCN1C(=O)CCCc1cn(-c2ccccc2)c(NC(=O)c2cccc(-c3cnn(C)c3)c2)n1 (stereo not shown) [Example 166, 3-(1-methyl-1H-pyrazol-4-yl)-N-(4-(4-(2-methylpiperidin-1-yl)-4-oxobutyl)-1-phenyl-1H-imidazol-2-yl)benzamide]"
4,< 50,"O=C(O)CCCc1cn(-c2ccccc2)c(NC(=O)c2cccc(-c3cn[nH]c3)c2)n1 [Example 57, 4-(2-(3-(1H-pyrazol-4-yl)benzamido)-1-phenyl-1H-imidazol-4-yl)butanoic acid]"
5,< 50,"CN1CCN(CCNC(=O)CCCc2cn(-c3ccccc3)c(NC(=O)c3cccc(-c4cnn(C)c4)c3)n2)CC1 [Example 187, 3-(1-methyl-1H-pyrazol-4-yl)-N-(4-(4-((2-(4-methylpiperazin-1-yl)ethyl)amino)-4-oxobutyl)-1-phenyl-1H-imidazol-2-yl)benzamide]"
6,< 50,"CN1CCN(C(=O)CCCCCc2cn(-c3ccccc3)c(NC(=O)c3cccc(-c4ccc(N)nc4)c3)n2)CC1 [Example 272, 3-(6-aminopyridin-3-yl)-N-(4-(6-(4-methylpiperazin-1-yl)-6-oxohexyl)-1-phenyl-1H-imidazol-2-yl)benzamide]"
7,< 50,"CCN1CCN(C(=O)CCCc2cn(-c3ccccc3)c(NC(=O)c3cccc(-c4cnn(C)c4)c3)n2)CC1 [Example 144, N-(4-(4-(4-ethylpiperazin-1-yl)-4-oxobutyl)-1-phenyl-1H-imidazol-2-yl)-3-(1-methyl-1H-pyrazol-4-yl)benzamide]"
8,< 50,"COC[C@@H]1CCCN1NC(=O)CCCc1cn(-c2ccccc2)c(NC(=O)c2cccc(-c3cn[nH]c3)c2)n1 [Example 53, (S)—N-(4-(4-((2-(methoxymethyl)pyrrolidin-1-yl)amino)-4-oxobutyl)-1-phenyl-1H-imidazol-2-yl)-3-(1H-pyrazol-4-yl)benzamide]"
9,< 50,"COC[C@H]1CCCN1NC(=O)CCCc1cn(-c2ccccc2)c(NC(=O)c2cccc(-c3cn[nH]c3)c2)n1 [Example 54, (R)—N-(4-(4-((2-(methoxymethyl)pyrrolidin-1-yl)amino)-4-oxobutyl)-1-phenyl-1H-imidazol-2-yl)-3-(1H-pyrazol-4-yl)benzamide]"
10,< 50,"O=C(Nc1nc(CCCCCC(=O)N2CCCCC2)cn1-c1ccccc1)c1cccc(-c2ccc3[nH]ncc3c2)c1 [Example 237, 3-(1H-indazol-5-yl)-N-(4-(6-oxo-6-(piperidin-1-yl)hexyl)-1-phenyl-1H-imidazol-2-yl)benzamide]"
11,< 50,"O=C(Nc1nc(CCC(=O)N2CCOCC2)cn1-c1ccccc1)c1cccc(-c2cn[nH]c2)c1 [Example 11, N-(4-(3-morpholino-3-oxopropyl)-1-phenyl-1H-imidazol-2-yl)-3-(1H-pyrazol-4-yl)benzamide]"
12,< 50,"O=C(CCCc1cn(-c2ccccc2)c(NC(=O)c2cccc(-c3cn[nH]c3)c2)n1)Nc1ccc(F)cc1F [Example 66, N-(4-(4-((2,4-difluorophenyl)amino)-4-oxobutyl)-1-phenyl-1H-imidazol-2-yl)-3-(1H-pyrazol-4-yl)benzamide]"
13,< 50,"CC(C)OC(=O)CCCc1cn(-c2ccccc2)c(NC(=O)c2cccc(-c3cn[nH]c3)c2)n1 [Example 70, isopropyl 4-(2-(3-(1H-pyrazol-4-yl)benzamido)-1-phenyl-1H-imidazol-4-yl)butanoate]"
14,> 100,"O=C(CCc1cn(-c2ccccc2)c(NC(=O)c2cncc(-c3cn[nH]c3)c2)n1)Nc1ccccc1 [Example 4, N-(4-(3-oxo-3-(phenylamino)propyl)-1-phenyl-1H-imidazol-2-yl)-5-(1H-pyrazol-4-yl)nicotinamide]"
15,< 50,"CN1CCN(CCCCc2cn(-c3ccccc3)c(NC(=O)c3cccc(-c4cnn(C)c4)c3)n2)CC1 [Example 221, 3-(1-methyl-1H-pyrazol-4-yl)-N-(4-(4-(4-methylpiperazin-1-yl)butyl)-1-phenyl-1H-imidazol-2-yl)benzamide]"
16,< 50,"Cn1cc(-c2cccc(C(=O)Nc3nc(CCCC(=O)N4CCN(C5CCCCC5)CC4)cn3-c3ccccc3)c2)cn1 [Example 182, N-(4-(4-(4-cyclohexylpiperazin-1-yl)-4-oxobutyl)-1-phenyl-1H-imidazol-2-yl)-3-(1-methyl-1H-pyrazol-4-yl)benzamide]"

row,IC50 [nM],Structure (SMILES)
1,< 50,"O=C(CCCc1cn(-c2ccccc2)c(NC(=O)c2cccc(-c3cn[nH]c3)c2)n1)Nc1ccccc1F [Example 65, N-(4-(4-((2-fluorophenyl)amino)-4-oxobutyl)-1-phenyl-1H-imidazol-2-yl)-3-(1H-pyrazol-4-yl)benzamide]"
2,> 100,"CN(C)C1CCN(C(=O)CCCc2cn(-c3ccccc3)c(NC(=O)c3cccc(-c4ccc5scnc5c4)c3)n2)CC1 [Example 282, 3-(benzo[d]thiazol-5-yl)-N-(4-(4-(4-(dimethylamino)piperidin-1-yl)-4-oxobutyl)-1-phenyl-1H-imidazol-2-yl)benzamide]"
3,> 100,"Cn1ncc2cc(-c3cccc(C(=O)Nc4nc(CCCCCC(=O)N5CCCCC5)cn4-c4ccccc4)c3)ccc21 [Example 251, 3-(1-methyl-1H-indazol-5-yl)-N-(4-(6-oxo-6-(piperidin-1-yl)hexyl)-1-phenyl-1H-imidazol-2-yl)benzamide]"
4,< 50,"O=C(Nc1nc(CCCCCO)cn1-c1ccccc1)c1cccc(-c2cn[nH]c2)c1 [Example 116, N-(4-(5-hydroxypentyl)-1-phenyl-1H-imidazol-2-yl)-3-(1H-pyrazol-4-yl)benzamide]"
5,< 50,"Cn1cc(-c2cccc(C(=O)Nc3nc(CCCCCC(=O)N4CCCCC4)cn3-c3ccccc3)c2)cn1 [Example 200, 3-(1-methyl-1H-pyrazol-4-yl)-N-(4-(6-oxo-6-(piperidin-1-yl)hexyl)-1-phenyl-1H-imidazol-2-yl)benzamide]"
6,< 50,"O=C(Nc1nc(CCCCCNc2ccccc2)cn1-c1ccccc1)c1cccc(-c2cn[nH]c2)c1 [Example 117, N-(1-phenyl-4-(5-(phenylamino)pentyl)-1H-imidazol-2-yl)-3-(1H-pyrazol-4-yl)benzamide]"
7,> 100,"O=C(CCCc1cn(-c2ccccc2)c(NC(=O)c2cccc(-c3cccc4cn[nH]c34)c2)n1)NC1CC1 [Example 248, N-(4-(4-(cyclopropylamino)-4-oxobutyl)-1-phenyl-1H-imidazol-2-yl)-3-(1H-indazol-7-yl)benzamide]"
8,< 50,"CN(C)c1ccc(NC(=O)CCCc2cn(-c3ccccc3)c(NC(=O)c3cccc(-c4cnn(C)c4)c3)n2)cc1 [Example 155, N-(4-(4-((4-(dimethylamino)phenyl)amino)-4-oxobutyl)-1-phenyl-1H-imidazol-2-yl)-3-(1-methyl-1H-pyrazol-4-yl)benzamide]"
9,< 50,"O=C(Nc1nc(CCCCCCN2CCCCC2)cn1-c1ccccc1)c1cccc(-c2cccnc2)c1 [Example 270, N-(1-phenyl-4-(6-(piperidin-1-yl)hexyl)-1H-imidazol-2-yl)-3-(pyridin-3-yl)benzamide]"
10,< 50,"CC1(C)CCN(C(=O)CCc2cn(-c3ccccc3)c(NC(=O)c3cccc(-c4cn[nH]c4)c3)n2)CC1 [Example 35, N-(4-(3-(4,4-dimethylpiperidin-1-yl)-3-oxopropyl)-1-phenyl-1H-imidazol-2-yl)-3-(1H-pyrazol-4-yl)benzamide]"
11,< 50,"O=C(O)CCc1cn(-c2ccccc2)c(NC(=O)c2cccc(-c3cn[nH]c3)c2)n1 [Example 7, 3-(2-(3-(1H-pyrazol-4-yl)benzamido)-1-phenyl-1H-imidazol-4-yl)propanoic acid]"
12,< 50,"O=C(O)CCCCCc1cn(-c2ccccc2)c(NC(=O)c2cccc(-c3cn[nH]c3)c2)n1 [Example 92, 6-(2-(3-(1H-pyrazol-4-yl)benzamido)-1-phenyl-1H-imidazol-4-yl)hexanoic acid]"
13,< 50,"O=C(CCc1cn(-c2ccccc2)c(NC(=O)c2cccc(-c3cn[nH]c3)c2)n1)Nc1ccc(F)cc1F [Example 16, N-(4-(3-((2,4-difluorophenyl)amino)-3-oxopropyl)-1-phenyl-1H-imidazol-2-yl)-3-(1H-pyrazol-4-yl)benzamide]"
14,50 to 100,"CN1CCC(NC(=O)CCCc2cn(-c3ccccc3)c(NC(=O)c3cccc(-c4cnn(C)c4)c3)n2)CC1 [Example 148, 3-(1-methyl-1H-pyrazol-4-yl)-N-(4-(4-((1-methylpiperidin-4-yl)amino)-4-oxobutyl)-1-phenyl-1H-imidazol-2-yl)benzamide]"
15,< 50,"O=C(Nc1nc(CCC[N+]2([O-])CCOCC2)cn1-c1ccccc1)c1cccc(-c2cn[nH]c2)c1 [Example 126, 4-(3-(2-(3-(1H-pyrazol-4-yl)benzamido)-1-phenyl-1H-imidazol-4-yl)propyl)morpholine 4-oxide]"
